Source: patent publication US20240238428A1 (priority 2021, published 2024)
Read-outs that look alike come from different tables or passages of the source.

Tests used:
HIV = details: peptide without selenium, cited from earlier work
virus gp 120 and CD4 = virus gp 120 and CD4 (Human immunodeficiency virus type 1 group M subtype B, UniProt P04578); details: peptide without selenium; only observed at this relatively high concentration; cited from earlier work
PC-3 cells = format: cell-based
normal prostate cells = format: cell-based
normal human lung cells = details: up to 10 μM
DU-145 cells = format: cell-based

TYICEVEDQKEE [gp120-binding 12-mer peptide]
effect of peptide without selenium on HIV (HIV-1; even at 100 μg/ml, the highest concentration tested): no significant effect | effect of control peptide solution on HIV-1 inactivation (HIV-1; peptide without selenium): no effect | peptide concentration with 50% infection blocking activity (HIV; corresponds to 32 μM): about 50 μg/ml | IC50 (HIV; read-out: peptide concentration with 50% infection blocking activity): 32000 nM | concentration at which an effect on the gp 120-CD4 interaction was observed (virus gp 120 and CD4): 457 micrograms per ml

selenium adduct of dihydrotesterone [SeDHT]
concentration that kills the cells (PC-3 cells): less than 10 micromolar | sensitivity of cells (normal prostate cells): sensitive | sensitivity of cells (colorectal cancer cells): Only the prostate cells are sensitive | sensitivity of cells (normal human lung cells): Only the prostate cells are sensitive | concentration that kills the cells (DU-145 cells): less than 10 micromolar

Se-TYICEVEDQKEE
inactivation of HIV (HIV-1; 10 μg/ml): over 95% | concentration for 50% inactivation of HIV (HIV-1; 0.25 mM reduced glutathione): 1 microgram per ml | inhibition of cell infection (HIV-1; 0.006 micrograms per ml): over 50% | inhibition of cell infection (HIV-1; 0.5 micrograms per ml): over 99% | inactivation of HIV virus (HIV-1; 10 micrograms per ml, 0.25 mM reduced glutathione, within 1 hour): 95% | concentration for 50% (half maximal) inactivation of HIV (HIV-1; 1 hour pre-incubation, 0.25 mM reduced glutathione): 1 µg/mL | concentration of peptide that binds and inactivates HIV in one hour (HIV-1; one hour): 0.5 µg/mL | IC50 (HIV-1; read-out: concentration for half maximal inactivation of virus, peptide in the medium during infection, after 100-fold dilution in culture medium): 5.9 nM | IC50 (HIV-1; read-out: concentration for half maximal inactivation of virus, peptide during the 1 hour pre-incubation): 590 nM | inactivation of HIV-1 (ability of infected cells to produce virus) (HIV-1; seleno-peptide 0.1 ug/ml, one hour with glutathione 250 uM): 95% | increase in effectiveness at preventing infection by coupling selenium to the 12-mer peptide (HIV-1; versus peptide without selenium): 50 fold
